# Paper PMC6627553, “Cardiac Rhythm and Molecular Docking Studies of Ion Channel Ligands with Cardiotoxicity in Zebrafish” (Cells, 2019)
# Entries after “also recorded” stand apart in the source; their conditions may differ. Where a name gives a salt, the structure may show the parent alone. Read-outs that look alike come from different tables or passages of the source.
# What was measured:
# [1] = test system: zebrafish embryos aged 72 hpf; test: End-point screen of ion channel ligand library for cardiac rhythm (ImageJ-based); conditions: 10 μM, 30 min incubation
# Description: Seventy-two hpf larvae were used for this study.
# The compounds are diluted with distilled water to make working solutions at 10 µM. For drug treatment, 20 µM of the compound stock was dropped onto the fish mounted with the same volume (around 50 µL) of 3% methylcellulose for a final working concentration of 10 µM. The heart beats from three zebrafish larvae were used for the first round of screening. […] The heart beats from five zebrafish larvae for each compound were recorded for 10 sec at 5 min intervals over a period of 30 min.
# For the cardiac rhythm assay, we mounted zebrafish embryos aged at 72 hpf with 3% methylcellulose to reduce their movement, and later applied chemicals from an ion channel ligand library (containing 70 compounds) at 10 μM to measure the changes in cardiac rhythm according to our previous ImageJ-based method [25]. In order to prevent the potential side effects of anesthesia on heart rate or rhythmicity, we used methylcellulose to mount zebrafish larvae for videotaping.
# Initially, we used an image-based end-point method to screen the potential effects of an ion channel ligand library on heart beat rhythm alterations. […] In order to screen a potential compound with high cardiotoxicity at a low dose, we performed chemical screening at 10 μM as a starting point. […] A heartbeat that exceeds these ranges is considered abnormal.
# [2] = test system: zebrafish embryos aged 72 hpf; test: Chronology method: heart beat recorded at 5 min intervals over 30 min; conditions: 10 μM; for Atrium and ventricle rhythmicity pattern after 30 min incubation: compared to control; for Cardiac phenotype by time chronology method: 10 sec recordings at 5 min intervals over 30 min, methylcellulose mounted
# Description: (§1) Stock concentrations for each compound in the library are 10 mM with 100 µL volume. The compounds are diluted with distilled water to make working solutions at 10 µM. For drug treatment, 20 µM of the compound stock was dropped onto the fish mounted with the same volume (around 50 µL) of 3% methylcellulose for a final working concentration of 10 µM. The heart beats from three zebrafish larvae were used for the first round of screening. […] The heart beats from five zebrafish larvae for each compound were recorded for 10 sec at 5 min intervals over a period of 30 min.
# (§2) After drug administration, we video recorded the heart beat for 10 sec at 5 min intervals, over a period of 30 min.
# rats = conditions: cited from earlier work
# [3] = test system: zebrafish embryos aged 72 hpf; test: Dose response experiment for lowest effective dose (LOED), time chronology method; conditions: 1 µM and 5 µM
# Description: Three different doses, 1, 5 and 10 μM, of the tested compounds were given to zebrafish embryos aged 72 hpf, and the heart beat rate and rhythmicity were recorded for comparison by the time chronology method.
# (§3) Five zebrafish larvae aged at 72 h post-fertilization (hpf) were used in this assay.
# cardiac K+ channels = conditions: cited from earlier work
# [4] = test system: zebrafish embryos aged 72 hpf; conditions: in vivo
# Description: as §1, §2
# [5] = test system: zebrafish larvae aged 72 hpf; test: Washout experiment for heart rate and rhythmicity; conditions: washout for 30 min and 1 h
# Description: as §3
# hERG channel = conditions: cited from earlier work
structure (smiles),measurement,setting,value
"CNc1ccc2oc(C[C@H]3O[C@@]4(CC[C@H]3C)O[C@H]([C@H](C)C(=O)c3ccc[nH]3)[C@H](C)C[C@H]4C)nc2c1C(=O)O [compound 1333, Antibiotic A-23187]",Heart rhythm phenotype in first step screening (end-point screen),[1],ventricular fibrillation or total heart stop; also recorded: irregular heart rhythmicity
same,Heart rhythm phenotype in first step screening (end-point screen),[1]; listed as Antibiotic A-23187,ventricular fibrillation
same,Atrium and ventricle rhythmicity pattern after 30 min incubation,[2],"1:1 rhythm, but the peak was more compact"
same,Increase of heart beat,rats,up to 50%
"Fc1ccc(C(c2ccc(F)cc2)N2CCN(C/C=C/c3ccccc3)CC2)cc1 [compound 1345, Flunarizine hydrochloride]",Heart rhythm phenotype in first step screening (end-point screen),[1],slight slowing of the heartbeat (bradycardia); also recorded: irregular heart rhythmicity
same,Cardiac phenotype by time chronology method,[2],slowing of heart rate as well as arrhythmia after incubation for 25 and 30 min; also recorded: slowing of the heart as well as arrhythmia after incubation for 25 and 30 min
same,Atrium and ventricle rhythmicity pattern after 30 min incubation,[2],"arryhtmia was not shown in the pattern; however, the peak was less compact compared to the control"
"COC(=O)c1c(C)[nH]c(C)c1C(=O)c1ccccc1Cc1ccccc1 [compound 1346, FPL-64176]",Heart rhythm phenotype in first step screening (end-point screen),[1],ventricular fibrillation or total heart stop; also recorded: irregular heart rhythmicity
same,Heart rhythm phenotype in first step screening (end-point screen),[1]; listed as FPL-64176,heart completely stopped
same,Effect on cardiac rhythmicity at low concentration,[3],did not change
same,Effect on heart beat rate at low concentration,[3],did not change the heart beat rate
same,Cardiac phenotype by time chronology method,[2],arrhythmia
same,Atrium and ventricle rhythmicity pattern after 30 min incubation,[2],arrhythmic beating
"O=c1[nH]c2ccccc2n1C1CCN(CCCC(c2ccc(F)cc2)c2ccc(F)cc2)CC1 [compound 1360, Pimozide]",Reported cardiac adverse effect,cardiac K+ channels,acquired long QT syndrome and ventricle arrhythmia
same,Reversibility of cardiotoxicity effect,cardiac K+ channels,poorly reversible
same,Heart rhythm phenotype in first step screening (end-point screen),[1],ventricular fibrillation or total heart stop; also recorded: irregular heart rhythmicity
same,Cardiac phenotype by time chronology method,[2],"atrioventricular block occurred, subsequently becoming more severe over time"
same,Atrium and ventricle rhythmicity pattern after 30 min incubation,[2],"arrhythmic, with one peak in the ventricle being followed by two in the atrium"
same,Cardiac phenotype by time chronology method,[4],atrioventricular block from 10 min onwards
same,Restoration of heart rate after washout,[5],"could not be fully restored, even after 1 h of washout treatment"
same,Reversal of arrhythmic effect after washout,[5],unable to fully reverse the arrhythmic effect
same,Concentration giving significant inhibition of hERG channel currents,hERG channel; as low as,3 nM
same,IC50,hERG channel; read-out: IC50 of hERG channel currents,18 nM
"O=C1NCN(c2ccccc2)C12CCN(CCCC(c1ccc(F)cc1)c1ccc(F)cc1)CC2 [compound 1377, Fluspirilene]",Heart rhythm phenotype in first step screening (end-point screen),[1],ventricular fibrillation or total heart stop; also recorded: irregular heart rhythmicity; also recorded: total heart stop
same,Heart rhythm phenotype in first step screening (end-point screen),[1]; listed as fluspirilene,heart completely stopped
same,Cardiac phenotype by time chronology method,[2],arrhythmia from 5 min onwards
same,Cardiac phenotype by time chronology method,[2]; listed as fluspirilene,arrhythmia occurred from 5 min onwards and became more severe over time
same,Atrium and ventricle rhythmicity pattern after 30 min incubation,[2],"arrhythmic, with one peak of the ventricle being followed by two of the atrium"
